From US9067922B2, “Chemical compounds” (Pfizer Limited, priority 2013, dated 2015)

Molecular target: URAT-1 transporter (Homo sapiens (Human), UniProt Q96S37)
Test: URAT-1 inhibitor activity: [14C]-uric acid uptake in CHO-URAT1(L)GFP#8 (CHO#8) cells, scintillation proximity
Assay type: cell-based
Conditions: inhibition of [14C]-uric acid (30 nM) uptake into CHO#8 cells; compound 0 to 10 μM; 4 parameter logistic fit
Procedure, shortened: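 CHO cells stably expressing human URAT1 long isoform–eGFP fusion, pre-incubated 1 h in chloride-containing buffer pH 7.4, then given 30 nM [14C]-uric acid with compound (0–10 μM, 0.25% DMSO) in chloride-free gluconate buffer pH 7.4. Uptake measured by scintillation proximity on Cytostar plates.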

Compound	IC50
N#Cc1cc(S(=O)(=O)Nc2ccc(F)cn2)ccc1Oc1ccccc1Cl [Example 9, 4-(2-chlorophenoxy)-3-cyano-N-(5-fluoropyridin-2-yl)benzenesulfonamide]	208 nM
CC(C)c1ccccc1Oc1ccc(S(=O)(=O)Nc2ccc(F)cn2)cc1C#N [Example 49, 3-cyano-N-(5-fluoropyridin-2-yl)-4-[2-(propan-2-yl)phenoxy]benzenesulfonamide]	> 1380 nM
4-{4-chloro-2-[D3-methyloxy]phenoxy}-3-cyano-N-(pyridazin-3-yl)benzenesulfonamide [Example 82]	409 nM
COc1cc(C)cc(Oc2ccc(S(=O)(=O)Nc3ccc(F)cn3)cc2C#N)c1 [Example 182, 3-cyano-N-(5-fluoropyridin-2-yl)-4-(3-methoxy-5-methylphenoxy)benzenesulfonamide]	175 nM
N#Cc1cc(S(=O)(=O)Nc2ccc(F)cn2)ccc1Oc1ccc(Cl)c(Cl)c1 [Example 122, 3-cyano-4-(3,4-dichlorophenoxy)-N-(5-fluoropyridin-2-yl)benzenesulfonamide]	99 nM
O=S(=O)(Nc1ccc(F)cn1)c1ccc(Oc2cnc(CO)c(Cl)c2)cc1F [compound 239, 4-{[5-chloro-6-(hydroxymethyl)pyridin-3-yl]oxy}-2-fluoro-N-(5-fluoropyridin-2-yl)benzenesulfonamide]	2 nM
N#Cc1cc(S(=O)(=O)Nc2ccc(F)cn2)ccc1Oc1ccc(Cl)cc1 [Example 20, 4-(4-chlorophenoxy)-3-cyano-N-(5-fluoropyridin-2-yl)benzenesulfonamide]	88 nM
CCOc1cc(C)ccc1Oc1ccc(S(=O)(=O)Nc2ccc(F)cn2)cc1C#N [Example 138, 3-cyano-4-(2-ethoxy-4-methylphenoxy)-N-(5-fluoropyridin-2-yl)benzenesulfonamide]	9210 nM
Cc1ccc(Cl)c(C)c1Oc1ccc(S(=O)(=O)Nc2ccc(F)cn2)cc1C#N [Example 169, 4-(3-chloro-2,6-dimethylphenoxy)-3-cyano-N-(5-fluoropyridin-2-yl)benzenesulfonamide]	134 nM
N#Cc1cc(S(=O)(=O)Nc2ncccn2)ccc1Oc1ccc(F)c(F)c1 [compound 211]	> 3000 nM
N#Cc1cc(S(=O)(=O)Nc2ccc(F)cn2)ccc1Oc1cccc(Cl)c1F [Example 24, 4-(3-chloro-2-fluorophenoxy)-3-cyano-N-(5-fluoropyridin-2-yl)benzenesulfonamide]	135 nM
Cc1ccc(Oc2ccc(S(=O)(=O)Nc3ccc(F)cn3)cc2C#N)c(F)c1F [Example 128, 3-cyano-4-(2,3-difluoro-4-methylphenoxy)-N-(5-fluoropyridin-2-yl)benzenesulfonamide]	> 10000 nM
COc1cc(Cl)cc(Oc2ccc(S(=O)(=O)Nc3ccc(F)cn3)cc2C#N)c1 [Example 162, 4-(3-chloro-5-methoxyphenoxy)-3-cyano-N-(5-fluoropyridin-2-yl)benzenesulfonamide]	125 nM
Cc1cc(Cl)cc(Oc2ccc(S(=O)(=O)Nc3ccc(F)cn3)cc2C#N)c1C [Example 159, 4-(5-chloro-2,3-dimethylphenoxy)-3-cyano-N-(5-fluoropyridin-2-yl)benzenesulfonamide]	514 nM
N#Cc1ccc(Oc2ccc(S(=O)(=O)Nc3ccncc3)cc2C#N)cc1Cl [Example 100, 4-(3-chloro-4-cyanophenoxy)-3-cyano-N-(pyridin-4-yl)benzenesulfonamide]	> 10000 nM
N#Cc1ccc(Oc2c(F)cc(S(=O)(=O)Nc3ccc(F)cn3)cc2C#N)cc1Cl [Example 248, 4-(3-chloro-4-cyanophenoxy)-3-cyano-5-fluoro-N-(5-fluoropyridin-2-yl)benzenesulfonamide]	324 nM
N#Cc1cc(S(=O)(=O)Nc2ccc(F)cn2)ccc1Oc1cccc(F)c1F [Example 16, 3-cyano-4-(2,3-difluorophenoxy)-N-(5-fluoropyridin-2-yl)benzenesulfonamide]	218 nM
COc1ccccc1Oc1ccc(S(=O)(=O)Nc2ccc(F)cn2)cc1C#N [Example 142, 3-cyano-N-(5-fluoropyridin-2-yl)-4-(2-methoxyphenoxy)benzenesulfonamide]	75 nM
Cc1cc(Oc2ccc(S(=O)(=O)Nc3ccc(F)cn3)cc2C#N)c(C(C)C)cc1Cl [Example 133, 4-[4-chloro-5-methyl-2-(propan-2-yl)phenoxy]-3-cyano-N-(5-fluoropyridin-2-yl)benzenesulfonamide]	793 nM
N#Cc1c(Cl)cccc1Oc1ccc(S(=O)(=O)Nc2ncccn2)cc1 [Example 222, 4-(3-chloro-2-cyanophenoxy)-N-(pyrimidin-2-yl)benzenesulfonamide]	> 10000 nM
O=S(=O)(Nc1cccnn1)c1cc(Cl)c(Oc2ccc(Cl)cc2OC(F)F)cc1F [Example 85, 5-chloro-4-[4-chloro-2-(difluoromethoxy)phenoxy]-2-fluoro-N-(pyridazin-3-yl)benzenesulfonamide]	> 10000 nM

Compound	IC50
Cc1cc(Oc2ccc(S(=O)(=O)Nc3ccc(F)cn3)cc2C#N)ccc1C#N [Example 61, 3-cyano-4-(4-cyano-3-methylphenoxy)-N-(5-fluoropyridin-2-yl)benzenesulfonamide]	39 nM
CCc1cc(F)ccc1Oc1ccc(S(=O)(=O)Nc2ccc(F)cn2)cc1C#N [Example 56, 3-cyano-4-(2-ethyl-4-fluorophenoxy)-N-(5-fluoropyridin-2-yl)benzenesulfonamide]	182 nM
Cc1cc(C)cc(Oc2ccc(S(=O)(=O)Nc3ccc(F)cn3)cc2C#N)c1 [Example 150, 3-cyano-4-(3,5-dimethylphenoxy)-N-(5-fluoropyridin-2-yl)benzenesulfonamide]	329 nM
N#Cc1cc(S(=O)(=O)Nc2ccc(F)cn2)ccc1Oc1c(Cl)cccc1C#N [Example 73, 4-(2-chloro-6-cyanophenoxy)-3-cyano-N-(5-fluoropyridin-2-yl)benzenesulfonamide]	418 nM
N#Cc1ccc(Oc2ccc(S(=O)(=O)Nc3ccc(F)cn3)cc2C#N)cc1F [Example 43, 3-cyano-4-(4-cyano-3-fluorophenoxy)-N-(5-fluoropyridin-2-yl)benzenesulfonamide]	53 nM
N#Cc1cc(S(=O)(=O)Nc2ccc(F)cn2)ccc1Oc1cccc(C#N)c1F [Example 75, 3-cyano-4-(3-cyano-2-fluorophenoxy)-N-(5-fluoropyridin-2-yl)benzenesulfonamide]	2210 nM
COc1c(F)ccc(Oc2ccc(S(=O)(=O)Nc3ccc(F)cn3)cc2C#N)c1Cl [Example 112, 4-(2-chloro-4-fluoro-3-methoxyphenoxy)-3-cyano-N-(5-fluoropyridin-2-yl)benzenesulfonamide]	177 nM
Cc1cc(Cl)cc(Oc2ccc(S(=O)(=O)Nc3ccc(F)cn3)cc2C#N)c1 [Example 15, 4-(3-chloro-5-methylphenoxy)-3-cyano-N-(5-fluoropyridin-2-yl)benzenesulfonamide]	135 nM
COc1cc(F)c(F)cc1Oc1ccc(S(=O)(=O)Nc2ccc(F)cn2)cc1C#N [Example 144, 3-cyano-4-(4,5-difluoro-2-methoxyphenoxy)-N-(5-fluoropyridin-2-yl)benzenesulfonamide]	40 nM
N#Cc1cc(S(=O)(=O)Nc2ccc(F)cn2)ccc1Oc1cc(F)cc(F)c1 [Example 11, 3-cyano-4-(3,5-difluorophenoxy)-N-(5-fluoropyridin-2-yl)benzenesulfonamide]	125 nM
N#Cc1cc(S(=O)(=O)Nc2ccc(F)cn2)ccc1Oc1ccc(F)cc1 [Example 183, 3-cyano-4-(4-fluorophenoxy)-N-(5-fluoropyridin-2-yl)benzenesulfonamide]	183 nM
COc1ccc(Cl)c(Oc2ccc(S(=O)(=O)Nc3ccc(F)cn3)cc2C#N)c1 [Example 44, 4-(2-chloro-5-methoxyphenoxy)-3-cyano-N-(5-fluoropyridin-2-yl)benzenesulfonamide]	167 nM
CC(C)Oc1ccccc1Oc1ccc(S(=O)(=O)Nc2ccc(F)cn2)cc1C#N [Example 207, 3-cyano-N-(5-fluoropyridin-2-yl)-4-[2-(propan-2-yloxy)phenoxy]benzenesulfonamide]	> 10000 nM
COc1cc(Oc2ccc(S(=O)(=O)Nc3ccc(F)cn3)cc2C#N)ccc1C#N [Example 76, 3-cyano-4-(4-cyano-3-methoxyphenoxy)-N-(5-fluoropyridin-2-yl)benzenesulfonamide]	57 nM
COc1cc(F)ccc1Oc1ccc(S(=O)(=O)Nc2ccc(F)cn2)cc1C#N [Example 160, 3-cyano-4-(4-fluoro-2-methoxyphenoxy)-N-(5-fluoropyridin-2-yl)benzenesulfonamide]	> 10000 nM
N#Cc1cc(Oc2cc(F)c(S(=O)(=O)Nc3ncccn3)cc2Cl)ccc1F [Example 225, 5-chloro-4-(3-cyano-4-fluorophenoxy)-2-fluoro-N-(pyrimidin-2-yl)benzenesulfonamide]	2330 nM
N#Cc1cc(S(=O)(=O)Nc2ccc(F)cn2)ccc1Oc1ccccc1Br [Example 189, 4-(2-bromophenoxy)-3-cyano-N-(5-fluoropyridin-2-yl)benzenesulfonamide]	103 nM
N#Cc1cc(S(=O)(=O)Nc2ccc(F)cn2)ccc1Oc1cc(F)cc(C(F)(F)F)c1 [Example 40, 3-cyano-N-(5-fluoropyridin-2-yl)-4-[3-fluoro-5-(trifluoromethyl)phenoxy]benzenesulfonamide]	988 nM
COc1cccc(F)c1Oc1ccc(S(=O)(=O)Nc2ccc(F)cn2)cc1C#N [Example 111, 3-cyano-4-(2-fluoro-6-methoxyphenoxy)-N-(5-fluoropyridin-2-yl)benzenesulfonamide]	74 nM
N#Cc1cc(S(=O)(=O)Nc2ccc(F)cn2)ccc1Oc1cccc(C(F)(F)F)c1F [Example 29, 3-cyano-N-(5-fluoropyridin-2-yl)-4-[2-fluoro-3-(trifluoromethyl)phenoxy]benzenesulfonamide]	> 10000 nM
N#Cc1cc(S(=O)(=O)Nc2ccc(F)cn2)ccc1Oc1ccc(CO)c(Cl)c1 [Example 247, 4-[3-chloro-4-(hydroxymethyl)phenoxy]-3-cyano-N-(5-fluoropyridin-2-yl)benzenesulfonamide]	1 nM
